# Laboratory results: PMC12586182 (Frontiers in Oncology, 2025)
# Tests used:
# [1] = molecular target: biotinylated, inactive MEK1 (Homo sapiens, UniProt Q02750); experiment: Surface plasmon resonance binding (Biacore 1S+); conditions: SPR
# [2] = molecular target: activated B-RAF (Homo sapiens, UniProt P15056); experiment: Surface plasmon resonance binding (Biacore 1S+); conditions: SPR, B-RAF
# Sequence of activated B-RAF (P15056 whole entry): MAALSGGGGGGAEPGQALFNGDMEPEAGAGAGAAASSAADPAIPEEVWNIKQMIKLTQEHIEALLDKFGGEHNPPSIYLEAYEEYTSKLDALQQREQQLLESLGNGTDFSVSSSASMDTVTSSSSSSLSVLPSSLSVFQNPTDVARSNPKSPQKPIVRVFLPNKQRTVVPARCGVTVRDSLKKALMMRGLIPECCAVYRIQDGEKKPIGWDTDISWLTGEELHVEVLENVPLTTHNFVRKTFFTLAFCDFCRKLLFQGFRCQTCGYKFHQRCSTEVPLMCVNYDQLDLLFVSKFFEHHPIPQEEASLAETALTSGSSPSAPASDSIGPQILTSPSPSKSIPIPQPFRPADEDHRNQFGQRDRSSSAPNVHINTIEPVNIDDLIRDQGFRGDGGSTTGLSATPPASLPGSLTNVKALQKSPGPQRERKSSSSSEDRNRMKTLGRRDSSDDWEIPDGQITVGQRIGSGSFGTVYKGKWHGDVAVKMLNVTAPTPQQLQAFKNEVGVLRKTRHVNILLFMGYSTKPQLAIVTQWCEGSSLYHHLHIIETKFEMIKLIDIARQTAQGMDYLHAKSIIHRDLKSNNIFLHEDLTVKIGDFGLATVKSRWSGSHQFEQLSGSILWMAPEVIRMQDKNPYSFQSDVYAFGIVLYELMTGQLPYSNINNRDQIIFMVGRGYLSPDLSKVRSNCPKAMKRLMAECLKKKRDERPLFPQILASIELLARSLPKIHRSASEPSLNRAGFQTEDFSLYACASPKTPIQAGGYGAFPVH
# Sequence of biotinylated, inactive MEK1 (Q02750 whole entry): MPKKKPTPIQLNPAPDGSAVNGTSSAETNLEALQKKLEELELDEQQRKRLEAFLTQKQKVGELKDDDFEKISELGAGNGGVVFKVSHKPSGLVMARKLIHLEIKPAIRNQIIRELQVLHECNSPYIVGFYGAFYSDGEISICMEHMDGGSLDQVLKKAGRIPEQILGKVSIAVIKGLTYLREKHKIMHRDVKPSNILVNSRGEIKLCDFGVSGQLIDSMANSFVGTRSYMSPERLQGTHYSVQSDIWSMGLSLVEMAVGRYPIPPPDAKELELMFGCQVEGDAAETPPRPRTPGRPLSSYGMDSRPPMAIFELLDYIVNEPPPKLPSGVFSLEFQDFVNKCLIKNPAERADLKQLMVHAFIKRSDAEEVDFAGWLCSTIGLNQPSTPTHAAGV
log (kd) [1],log(ka) [1],t1/2 [1],log (kd) [2],log(ka) [2],t1/2 [2],SMILES
-3.87,5.34,1.428 h,–,–,–,CC(=O)Nc1cccc(-n2c(=O)n(C3CC3)c(=O)c3c(Nc4ccc(I)cc4F)n(C)c(=O)c(C)c32)c1 [trametinib]
–,–,–,-4.40,5.36,4.8056 h,COC(=O)N[C@@H](C)CNc1nccc(-c2cn(C(C)C)nc2-c2cc(Cl)cc(NS(C)(=O)=O)c2F)n1 [encorafenib]
